According to ChEMBL document CHEMBL1129202, “Palladium-catalysed synthesis of some biologically active 5, 6-disubstituted uracils” (Bioorg Med Chem Lett, 1996):

Tested on: CCRF-CEM
Test: In vitro cytotoxic activity against CCRF-CEM human lymphoblastoid cells in culture.
Type: functional, cell-based

SMILES | IC50 [µM]
Cc1ccc(C(=O)/C=C/c2nc(O)nc(O)c2I)cc1 | 1.4
Cc1ccc(C(=O)/C=C/c2nc(O)nc(O)c2Cl)cc1 | 12.2
COc1ccc(C(=O)/C=C/c2cc(O)nc(O)n2)cc1 | 2.2
Cc1ccc(C(=O)/C=C/c2cc(O)nc(O)n2)cc1 | 1.8
Cc1ccc(C(=O)/C=C/c2nc(O)nc(O)c2Br)cc1 | 2.6
